Laboratory results: patent US8895032B2, “Dendritic nano-antioxidants” (Central Michigan University, priority 2009, dated 2014)
Values joined by “and” are separate entries in the source; they are usually repeats but may differ in a detail not shown here. Equal entries are not always repeated.

Columns and labels:
DPPH radical assay = experiment: DPPH radical assay
Procedure: The DPPH assay was one of three electron transfer (ET) assays used to determine the antioxidant potential of compound 1 (described in Example 6) in comparison to its monomeric counterpart (syringaldehyde) as well as popular antioxidants. In an ET assay, an antioxidant donates electron(s) to a molecular probe, thus reducing it. From the assay, thermodynamic conversion of antioxidant to antioxidant radical (oxidation) is measured during a fixed time period.
The reduction of DPPH radical was determined for ascorbic acid, Trolox, syringaldehyde, and the compound 1 described in Example 6 as previously reported (Brand-Williams, et al. Lebensm.-Wiss U.-Technol. 1995, 28, 25-30, incorporated herein by reference in its entirety). In the DPPH assay, DPPH• radical was reduced by the antioxidant in methanol (Brand-Williams, et al. Lebensm.-Wiss U.-Technol. 1995, 28, 25-30, incorporated herein by reference in its entirety). […] The DPPH reagent was made in methanol. Antioxidant sample (10 μL) was added to 1.0 mL of reagent and the absorbance was monitored at 515 nm until a plateau was reached. Antioxidant concentrations were 50 μM syringaldehyde, 12.5 μM Trolox and ascorbic acid, and 5 μM compound 1. All samples were made in methanol and run in triplicates at room temperature.
The DPPH• scavenging capacity of each antioxidant was evaluated from the plot of the percentage DPPH• remaining when the kinetics reached a steady state as a function of the molar ratios of antioxidant to DPPH•. […] Using the curve, EC50 (the amount of antioxidant necessary to decrease the initial DPPH• concentration by 50%), antiradical power (1/EC50, ability to reduce the DPPH•), reaction stoichiometry (EC50×2, the concentration of antioxidant required to reduce 100% of DPPH• radical), and the number of reduced DPPH• per antioxidant molecule (1/stoichiometry) for each antioxidant were calculated as previously described (Brand-Williams, et al. Lebensm.-Wiss U.-Technol. 1995, 28, 25-30, incorporated herein by reference in its entirety) and are depicted in Table 1.
Antioxidant capacity of the compounds was assessed by the DPPH assay (Brand-Williams, et al. Lebensm. Wiss. Technol. 1995, 28, 25, incorporated herein by reference in its entirety). […] In FIG. 22, control with methanol is (X, dashed); compound 1 is (□), compound 2 is (•), compound 3 is (◯), and Trolox (Δ). All antioxidant concentrations were 5 μM.
The free-radical scavenging ability of the antioxidants was evaluated by the DPPH assay, as described above in Example 7.

[1] = beta-carotene-linoleate assay; type: biochemical; settings: for % A470 nm: 12 μM, after 180 min incubation at 50° C.; for protection of linoleic acid from oxidation: 50° C., 180 min, 470 nm
Source text: The ability of the dendritic antioxidants 1, 2, and 3 to protect linoleic acid against free radical damage was examined by the beta-carotene-linoleate model (Jayaprakasha, G. K., et al. Food Chem. 2001, 73, 285, incorporated herein by reference in its entirety). In the absence of an antioxidant, hydroperoxides formed from linoleic acid oxidation bleach the highly unsaturated beta-carotene by a free-radical-mediated phenomenon. The bleaching of the reddish-orange color of beta-carotene was monitored at 470 nm in the presence of various concentrations of antioxidant. The % absorbance (corrected for control without antioxidant) was determined at each antioxidant concentration after incubation at 50° C. for 180 min. The % A470 nm values were determined as follows: % A470 nm=[(At(180 min)/At(0 min))×100]−[(Ac(180 min)/Ac(0 min))×100], wherein At(180 min)=absorbance at 470 nm of antioxidant sample incubated at 50° C. for 180 min, At(0 min)=absorbance at 470 nm of antioxidant sample incubated at 50° C. for 0 min, Ac(180 min)=absorbance at 470 nm of control sample (without antioxidant) incubated at 50° C. for 180 min, and Ac(0 min)=absorbance at 470 nm of control sample (without antioxidant) incubated at 50° C. for 0 min. […] In FIG. 24, protection of linoleic acid from oxidation by various antioxidants is shown for compound 1 (□), compounds 2 and 3 (•), quercetin (x), and Trolox (Δ).

plasmid DNA pBR 322 = experiment: Protection of plasmid DNA from AAPH damage (agarose electrophoresis); type: biochemical; settings: 10 mM AAPH, 37° C., 4 h
Procedure: The effectiveness of the three compounds to protect DNA from AAPH damage was also determined. The plasmid DNA pBR 322 was incubated with AAPH (final concentration 10 mM) at 37° C. for 4 h with or without antioxidants (final concentrations, 0.35-45 μM), after which the samples were subjected to agarose electrophoresis (Sakihama, Y., et al. Toxicology 2002, 177, 67, incorporated herein by reference in its entirety). […] In the absence of AAPH, pBR 322 was mostly in its supercoiled (S) form (small amount of open circular, O, form was also visible, lane 1 FIG. 25). After reaction with AAPH, the DNA was transformed almost entirely into its open circular form (lane 2, FIG. 25). […] No protection was obtained for both compound 1 and quercetin below 5 μM (lanes 7-10, FIG. 25). […] Compound 3 as well as Trolox were ineffective at all concentrations used in the experiment (0.35-45 μM).
Protection of DNA from free radical damage by the antioxidant dendrimers (compounds 4, 5, and 1) was also evaluated. Plasmid DNA (pBR 322) samples, were incubated with AAPH (final concentration 10 mM) at 37° C. for 4 h with antioxidants (final concentrations, 0.35-45 μM) and subjected to agarose electrophoresis. […] The native DNA was mostly in its supercoiled (S) form (small amount of open circular, O, form was also visible, lane 1, FIG. 31). In the presence of AAPH, the DNA was transformed almost entirely into its O form (lane 2, FIG. 31). […] Negligible DNA protection was afforded by all three dendrimers at ≦2.5 μM (lanes 7-10, FIG. 31). Under similar conditions, Trolox as well as the starting materials for dendrimer synthesis were ineffective at all concentrations.

Human LDL = experiment: Protection of LDL from AAPH oxidation (agarose gel electrophoresis); type: biochemical; settings: 10 mM AAPH, 18 h, 37° C.
Source text: The antioxidant activity of compounds 1, 2, and 3 towards biomolecules was examined by studying their ability to protect LDL, fatty acid, and DNA from free radicals. For LDL, AAPH was used to induce free radical damage. AAPH was used instead of copper (Cu^2) ion for LDL oxidation so that the free radical scavenging activity of the antioxidants could be measured without any pro-oxidant interference caused by metal ions (Salah, N. et al. Arch. Biochem. Biophys. 1995, 322, 339, incorporated herein by reference in its entirety). All solutions were made in ultra-pure water.
Protection of LDL from AAPH free radicals by the antioxidant decreased the anodic shift in a dose-dependent manner (FIG. 23). […] The increased hydrophobicity of compound 3 may be partly responsible for its improved LDL protection over compound 2.
The antioxidant activity of the antioxidants towards biomolecules was examined by studying their ability to protect LDL, lysozyme, and DNA from free radicals. For LDL, AAPH was used to induce free radical damage. AAPH was used instead of Cu^2+ for LDL oxidation so that the free radical scavenging activity of the antioxidants could be measured without any pro-oxidant interference caused by metal ions. The oxidation of human low-density lipoprotein was used as a model for evaluating the ability of the G1 dendrimers as chain-breaking antioxidants for lipid. Oxidation of LDL leads to changes in both the lipid and the protein moieties of the lipoprotein particle. Lipid peroxidation in LDL has been evaluated by a variety of methods. Due to the complexity of events that occur in lipoprotein oxidation, the electrophoretic migration pattern of oxidized LDL is one of the best methods to evaluate the extent of lipoprotein oxidation. LDL was incubated with 20 mM AAPH and increasing concentrations of the G1 dendrimers (0-37 μM in PBS) for 21 h at 37° C. The mixture was then subjected to agarose gel electrophoresis using the Ciba Corning Clinical Electrophoresis System. The agarose gel was stained with Fat Red 7B. In FIG. 30A (top), lane 1 is native LDL, and lanes 2-8 are AAPH-oxidized LDL with 0, 37, 18.5, 9, 4.5, 2 and 1 μM compound 4, respectively. In FIG. 30B (bottom), lane 1 is native LDL, and lanes 2-8 are AAPH-oxidized LDL with 0, 37, 18.5, 9, 4.5, 2 and 1 μM quercetin or Trolox, respectively.

[2] = ABTS radical cation decolorization assay; type: biochemical
Source text: We have tested AO activity of G1 (13) using ABTS as a radical source using a previously reported spectroscopic assay. The AO activity of the G1 (13) was compared to those of syringaldehyde, gallic acid, and vitamin C. If the phenolic OH group is the radical scavenging site, the expected AO activity of the G1 (13) should be 4 fold higher than that of syringaldehyde and 1.3 fold higher than that of gallic acid (which has three phenolic OH groups).
ABTS radical cation decolorization assay was used as previously described (Ozgen, et al. J. Agric. Food Chem. 2006, 54, 1151-1157, incorporated herein by reference in its entirety). Like the DPPH assay, this was also a decolorization assay and measured absorbance decrease at 734 nm as the ABTS radical (ABTS•+) is quenched by the antioxidant. The solvent used for the assay was ethanol. ABTS reagent was added to 1.0 mL solvent in a cuvet to bring the absorbance to 0.7. A 10 μL sample of antioxidant was then added, mixed, and the absorbance monitored at 734 nm for 6 min. Antioxidant concentrations were 14.4 μM Trolox, 11.4 μM ascorbic acid, 15.4 μM syringaldehyde, and 3 μM compound 1. The % decrease in absorbance at 6 min was plotted against antioxidant concentrations. The gradient of the line obtained by linear regression for a given antioxidant was divided by that obtained for Trolox to yield Trolox equivalent antioxidant (TEAC) values. All samples were made in ethanol and run in triplicates and at room temperature.

[3] = FRAP assay (reduction of Fe(III) to Fe(II)); type: biochemical; set-up: Slope of ΔA593 versus concentration: unit not given here; settings: for Slope of ΔA593 versus concentration: 37° C.
Procedure: The FRAP assay was performed as previously described (Pulido, et al. J. Agric. Food Chem. 2000, 48, 3396-3402, incorporated herein by reference in its entirety). In the FRAP assay, ferric was reduced by the antioxidant to ferrous via electron transfer (Benzie et al., Anal. Biochem. 1996, 239, 70-76, incorporated herein by reference in its entirety). This assay measured the redox potential of an antioxidant which is used as an estimate of antioxidant efficiency and expressed as a FRAP value. […] The compound 1 as well as the other antioxidants was dissolved in methanol. […] Reaction kinetics of the compound 1 and other antioxidants were obtained by plotting the change in slopes at various times and are shown in FIG. 18. […] This time-dependent increase in absorbance was previously reported (Pulido, et al. J. Agric. Food Chem. 2000, 48, 3396-3402, incorporated herein by reference in its entirety) and was especially significant with polyphenolic compounds. […] However, the FRAP value increased with time, reaching 2.5 in 60 min. […] J. Agric. Food Chem. 2000, 48, 3396-3402, incorporated herein by reference in its entirety). […] EC1 values, and therefore ferric reducing ability, were lower at longer reaction times as expected from the kinetic behavior of the antioxidants (Pulido, et al. J. Agric. Food Chem. 2000, 48, 3396-3402, incorporated herein by reference in its entirety).

For `NCc1ccc(CN)cc1` [4-aminomethylbenzylamine], the “quenching of DDPH•” value (DPPH radical assay; 40 μM final concentration in cuvet) was 6% and the “% A470 nm” value [1] was 16%.
With `COc1cc(CN(Cc2ccc(CN(Cc3ccc(O)c(OC)c3)Cc3ccc(O)c(OC)c3)cc2)Cc2ccc(O)c(OC)c2)ccc1O` [Compound 2] the “concentration at which some DNA protection was observed” value (plasmid DNA pBR 322) was no less than 45 µM and the “protection of linoleic acid from oxidation” value [1] was “about twice weaker than compound 1”.
In the case of `COc1cc(CN(Cc2ccc(CN(Cc3cc(I)c(O)c(OC)c3)Cc3cc(I)c(O)c(OC)c3)cc2)Cc2cc(I)c(O)c(OC)c2)cc(I)c1O` [Compound 3], the “DNA protection at all concentrations used” value (plasmid DNA pBR 322; 0.35-45 μM) is reported as “ineffective”, the “protection of linoleic acid from oxidation” value [1] is reported as “about twice weaker than compound 1” and the “protection of LDL from AAPH free radicals (anodic migration)” value (Human LDL) is reported as “better LDL protection than compound 2”.
With `COc1cc(C=O)cc(OC)c1O` [Syringaldehyde] the “# of DDPH• reduced per antioxidant molecule (1/stoichiometry)” value (DPPH radical assay) was 0.33, the “Antioxidant Capacity Relative to Trolox, DPPH” value (DPPH radical assay) was 0.18 and the “DPPH assay, times weaker than Trolox” value (DPPH radical assay) was 5.6 times. For the same molecule, the “DPPH• remaining in one minute” value (DPPH radical assay; 50 μM syringaldehyde) was 96%, the “time to reach plateau / steady state with DPPH•” value (DPPH radical assay; 50 μM syringaldehyde, 12.5 μM Trolox and ascorbic acid, 5 μM compound 1, methanol, room temperature, 515 nm) was “approximately 45 min” and the “Antioxidant Capacity Relative to Trolox, ABTS” value [2] was 0.98. For the same molecule, the IC50 ([2]; final concentration in the cuvet, read-out: concentration at which 50% inhibition of ABTS•+ was observed) was roughly 11 µM, the “Slope of % decrease in absorbance at 6 min versus antioxidant concentration” value ([2]; linear regression, concentration in μM) was 3.9 and the TEAC ([2]; slope divided by that of Trolox, % decrease in A734 at 6 min, ethanol) was 0.98. The “% A470 nm” value [1] was 12%, the “Antioxidant Capacity Relative to Trolox, FRAP 5 min” value ([3]; 5 min) was 2.3 and the “EC1 (concentration with ferric-TPTZ reducing ability equivalent to 1 mM FeSO4.7H2O)” value ([3]; 5 min) was 194 µM. The “FRAP value relative to Fe(II)” value ([3]; 5 min) was 5.1, the “FRAP value relative to Fe(II)” value ([3]; 15 min) was 6.7 and the “FRAP value relative to Fe(II)” value ([3]; 30 min) was 8.4. The “Antioxidant Capacity Relative to Trolox, FRAP 60 min” value ([3]; 60 min) was 4 and 4.2, the “EC1 (concentration with ferric-TPTZ reducing ability equivalent to 1 mM FeSO4.7H2O)” value ([3]; 60 min) was 108 µM and the “FRAP value relative to Fe(II)” value ([3]; 60 min) was 9.2. The “Slope of ΔA593 versus concentration” value ([3]; Reaction time 5 min) was 0.062, the “Slope of ΔA593 versus concentration” value ([3]; Reaction time 15 min) was 0.081 and the “Slope of ΔA593 versus concentration” value ([3]; Reaction time 30 min) was 0.101. For the same molecule, the “Slope of ΔA593 versus concentration” value ([3]; Reaction time 60 min) was 0.111.
